Test results from patent US9532947B2, “Formulation for oral transmucosal administration of analgesic and/or antispasmodic molecules” (priority 2009, dated 2017).

Assays:
[1] = oral/digestive route, cited from earlier work; for fraction of the orally administered dose that is truly bioavailable (residual part reaching the smooth muscular membranes): coated pill or ODT form, on average at best
[2] = Complete dissolution of active principle in approximately 40° ethanol (dissolution coefficient); assay type: physicochemical
Source text: The expression “stable and completely dissolved state” refers to a solution state rendering the active principle in the molecular and weakly ionized state in its solution medium, this solution state preventing any possibility of inopportune recrystallization. This stable and completely dissolved state may be monitored immediately on use of the formulation of the invention by evaluating the visual appearance of the solution obtained (measurement of the degree of limpidity), then at the level of the filtration residues (appearance or non-appearance of crystals), and finally in the medium-term and long-term during stability tracking tests at varying temperatures and relative humidities.
By way of illustration, the dissolution coefficient of phloroglucinol in ethanol makes it possible to obtain complete dissolution of said active principle at the rate of 20 milligrams (mg) of phloroglucinol in 0.75 mL of approximately 40° ethanol.
Similarly, the coefficient of dissolution of tiemonium methylsulfate in ethanol makes it possible to obtain complete dissolution of said active principle at the rate of 10 mg of tiemonium in 0.75 mL of approximately 40° ethanol. The coefficient of dissolution of nefopam in ethanol makes it possible to obtain complete dissolution of said active principle at the rate of 20 mg of nefopam in 1 mL of approximately 40° ethanol.

## CN1CCOC(c2ccccc2)c2ccccc2C1 (stereo not drawn) [nefopam]
[1]; all three main metabolites have no pharmacological activity
  truly bioavailable dose of active principle resorbed by the digestive tract: virtually nil
[2]
  complete dissolution of active principle at the rate of: 20 mg in 1 mL

## Oc1cc(O)cc(O)c1 [phloroglucinol]
[1]
  fraction of the orally administered dose that is truly bioavailable (residual part reaching the smooth muscular membranes): 40% to 50
[2]
  complete dissolution of active principle at the rate of: 20 mg in 0.75 mL

## COS(=O)(=O)[O-].C[N+]1(CCC(O)(c2ccccc2)c2cccs2)CCOCC1 (stereo not drawn) [tiemonium, tiemonium methylsulfate]
[1]
  fraction of the orally administered dose that is truly bioavailable (residual part reaching the smooth muscular membranes): 10% to 15
[2]
  complete dissolution of active principle at the rate of: 10 mg in 0.75 mL
